# Results taken from patent US11236102B2, “Oxabicycloheptane prodrugs” (Lixte Biotechnology, Inc., priority 2015, dated 2022).
# “And” between values parts separate entries of the source, which are not always exact repeats. Equal values may be shown once. Read-outs that look alike come from different tables or passages of the source.
# Legend:
# [1] = Pharmacokinetic study of 151 (iv, oral) in SD rats: 151 and 100 in plasma; assay type: in vivo; settings: for AUC(0-t): read-out: AUC0-t of 151; for AUC(0-inf): read-out: AUC0-∞ of 151; for concentration at 0.5 h: 0.50 h
# Procedure: The absolute bioavailability was evaluated.
# To each sample, 160 μL of acetonitrile were added.
# The mass spectrometer was operated in the positive mode.
# Quantification was achieved by the external standard method.
# Calibration Curve for Plasma Samples
# LB100 concentrations of the LB151 plasma samples were also measured and pharmacokinetic parameters were calculated.
# [2] = Oral absorption / oral bioavailability of 151 and 100; settings: rat, in vivo
# [3] = male, Sprague-Dawley, rat, in vivo, iv, 1 mg/kg, plasma, 151 IV 1.0 mg/kg, SD rats, individual rats
# [4] = male, Sprague-Dawley, rat, in vivo, iv, 1 mg/kg, plasma, 151 IV 1.0 mg/kg, SD rats, mean
# [5] = male, Sprague-Dawley, rat, in vivo, po, 10 mg/kg, 151 PO 10 mg/kg, SD rats, individual rats
# [6] = male, Sprague-Dawley, rat, in vivo, po, 10 mg/kg, 151 PO 10 mg/kg, SD rats, mean
# [7] = male, Sprague-Dawley, rat, in vivo, po, 10 mg/kg, plasma, 151 PO 10 mg/kg, SD rats, individual rats
# [8] = male, Sprague-Dawley, rat, in vivo, po, 10 mg/kg, plasma, 151 PO 10 mg/kg, SD rats, mean
# [9] = plasma, 151 IV 1.0 mg/kg, SD rats, individual rats, 1 mg/kg
# [10] = plasma, 151 PO 10 mg/kg, SD rats, individual rats, 10 mg/kg
smiles,measurement,setting,value
COC(=O)C1C2CCC(O2)C1C(=O)N1CCN(C)CC1 (stereo not shown) [Compound 151],MRT,[1]; [3],0.91 h
same,AUC(0-t),[1]; [3],1290 ng·h/mL
same,AUC(0-inf),[1]; [3],1310 ng·h/mL
same,half-life,"[1]; male, Sprague-Dawley, rat, in vivo, iv, 1 mg/kg, plasma, 151 IV 1.0 mg/kg, SD rats, individual rats, read-out: T1/2 of 151 (converted)",0.91 h
same,MRT,[1]; [4],0.86 h
same,AUC(0-t),[1]; [4],1170 ng·h/mL
same,AUC(0-inf),[1]; [4],1180 ng·h/mL
same,half-life,"[1]; male, Sprague-Dawley, rat, in vivo, iv, 1 mg/kg, plasma, 151 IV 1.0 mg/kg, SD rats, mean, read-out: T1/2 of 151 (converted)",0.89 h
same,concentration at 0.25 h,[1]; [5],2230 ng/mL
same,concentration at 0.25 h,[1]; [6],2330 ng/mL
same,concentration at 0.5 h,[1]; [5],2450 ng/mL
same,concentration at 0.5 h,[1]; [6],3240 ng/mL
same,concentration at 1 h,[1]; [5],2200 ng/mL
same,concentration at 1 h,[1]; [6],2440 ng/mL
same,concentration at 2 h,[1]; [5],1100 ng/mL
same,concentration at 2 h,[1]; [6],1310 ng/mL
same,concentration at 3 h,[1]; [5],521 ng/mL
same,concentration at 3 h,[1]; [6],658 ng/mL
same,concentration at 5 h,[1]; [5],125 ng/mL
same,concentration at 5 h,[1]; [6],139 ng/mL
same,concentration at 7 h,"[1]; male, Sprague-Dawley, rat, in vivo, po, 10 mg/kg, 151 PO 10 mg/kg, SD rats, 7.0 h, mean",43.8 ng/mL
same,concentration at 9 h,[1]; [5],52.1 ng/mL
same,concentration at 9 h,[1]; [6],52.1 ng/mL
same,half-life,"[1]; male, Sprague-Dawley, rat, in vivo, po, 10 mg/kg, 151 oral 10 mg/kg, SD rats (n=3), read-out: mean half-life (converted)",1.26 h
same,Cmax,[1]; [7],2450 ng/mL
same,MRT,[1]; [7],1.86 h
same,AUC(0-t),[1]; [7],5400 ng·h/mL
same,AUC(0-inf),[1]; [7],5500 ng·h/mL
same,half-life,"[1]; male, Sprague-Dawley, rat, in vivo, po, 10 mg/kg, plasma, 151 PO 10 mg/kg, SD rats, individual rats, read-out: T1/2 of 151 (converted)",1.33 h
same,Cmax,[1]; [8],3240 ng/mL
same,MRT,[1]; [8],1.81 h
same,AUC(0-t),[1]; [8],6340 ng·h/mL
same,AUC(0-inf),[1]; [8],6440 ng·h/mL
same,half-life,"[1]; male, Sprague-Dawley, rat, in vivo, po, 10 mg/kg, plasma, 151 PO 10 mg/kg, SD rats, mean, read-out: T1/2 of 151 (converted)",1.26 h
same,bioavailability,"[1]; male, Sprague-Dawley, rat, in vivo, 151 oral 10 mg/kg, based on AUC0-∞, read-out: absolute bioavailability (F)",54.6%
same,Tmax,"[1]; male, Sprague-Dawley, rat, in vivo, plasma, 151 PO 10 mg/kg, SD rats, mean",0.5 h
same,AUC0-t of 151,[1]; [9],1045 ng·h/mL
same,AUC0-∞ of 151,[1]; [9],1047 ng·h/mL
same,MRT of 151,[1]; [9],0.81 h
same,T1/2 of 151,[1]; [9],0.87 h
same,AUC0-t of 151,[1]; [10],6423 ng·h/mL and 7199 ng·h/mL
same,AUC0-∞ of 151,[1]; [10],6484 ng·h/mL and 7328 ng·h/mL
same,Cmax of 151,[1]; [10],3934 ng/mL and 3343 ng/mL
same,MRT of 151,[1]; [10],1.62 h and 1.95 h
same,T1/2 of 151,[1]; [10],1.10 h and 1.35 h
same,bioavailability,[2],~60%
